{
  "source": "patent US20240336896A1",
  "about": "“MODIFIED PRODUCER CELLS FOR EXTRACELLULAR VESICLE PRODUCTION” (LONZA SALES AG, priority 2021, published 2024)",
  "key": {"[1]": {"test_system": "1919 HiBit reporter cell line", "test": "HiBit luciferase reporter assay of EV production, agent supplemented into media", "assay_type": "cell-based"}, "HiBit reporter cell line [2]": {"test_system": "HiBit reporter cell line", "conditions": "for Day 4 VCD / Day 4 Viability: 4 day; for D6 VCD / Day 6 Viability: 6 day"}, "[3]": {"test_system": "primary murine polymorphonuclear neutrophils, RAW264.7 monocytic cells, and 4T1 murine mammary cancer cells", "conditions": "Baek et al., Endocrinology 2021; cited from earlier work"}, "[4]": {"test_system": "HEK producer cell line producing IL-12 EVs (exoIL-12)", "test": "EV yield in total particles, exoIL-12 producer cells", "assay_type": "cell-based", "description": "(§1) The cells lines were treated with simvastatin (5 nM and 10 nM) for 10 days prior to EV purification."}, "human adipose MSC cells": {"test_system": "human adipose MSC cells", "test": "relative EV yield by AEX UHPLC peak areas of clarified conditioned media", "assay_type": "cell-based", "conditions": "6 nM simvastatin, 4 days, serum free media", "description": "When cultures reached approximately 50% confluence, the media was removed and replaced with the identical growth media (control) or the growth media supplemented with […] simvastatin (sim treated). The cultures were incubated for an additional 4 days at which point the conditioned media was collected and the cell debris removed by centrifugation. The clarified condition media was then analyzed by anion exchange (AEX) ultra high-performance liquid chromatography (UHPLC), and the relative amount of extracellular vesicles in each sample was estimated by comparing peak areas. Table 11 quantifies the results, showing a 2.6 fold increase in EV production by adipose MSC cells treated with 6 nM simvastatin."}, "CHO-S cells": {"test_system": "CHO-S cells", "test": "EV yield in total particles from CHO cells", "assay_type": "cell-based, Chinese Hamster", "description": "Table 10 quantifies the results. A similar 5.6-fold increase relative to untreated controls was also observed in CHO-S cells six days after being treated with 6 nM simvastatin."}, "[5]": {"test_system": "HEK producer cell line producing Protein X EVs (PrX)", "test": "EV yield in total particles, PrX producer cells", "assay_type": "cell-based", "description": "as §1"}, "HiBit reporter cell line [6]": {"test_system": "HiBit reporter cell line", "test": "viability and viable cell density (VCD) of treated producer cells"}},
  "note": "Like-named read-outs stand apart in the source and are kept apart here.",
  "data": [
    {"smiles": "CC(C)c1nc(N(C)S(C)(=O)=O)nc(-c2ccc(F)cc2)c1/C=C/[C@@H](O)C[C@@H](O)CC(=O)O", "note": "[rosuvastatin]", "values": [
      {"measurement": "EV expression (luminescence/cell)", "setting": "[1]; 10, 25, 50, 75, 100 nM, four days post induction", "result": "dose-dependent increase"}
    ]},
    {"smiles": "CN(C)C(=O)N[C@H]1CC[C@H](CCN2CCN(c3cccc(Cl)c3Cl)CC2)CC1", "note": "[Cariprazine, cariprazine]", "values": [
      {"measurement": "Luciferase relative to control", "setting": "[1]; 2 μM cariprazine, Day 2", "result": 0.8},
      {"measurement": "Luciferase relative to control", "setting": "[1]; 2 μM cariprazine, Day 3", "result": 1.8},
      {"measurement": "Luciferase relative to control", "setting": "[1]; 5 μM cariprazine, Day 2", "result": 1},
      {"measurement": "Luciferase relative to control", "setting": "[1]; 5 μM cariprazine, Day 3", "result": 2.6},
      {"measurement": "Luciferase relative to control", "setting": "[1]; 10 μM cariprazine, Day 2", "result": 0.8},
      {"measurement": "Luciferase relative to control", "setting": "[1]; 10 μM cariprazine, Day 3", "result": 2.4},
      {"measurement": "Day 4 VCD", "setting": "HiBit reporter cell line [2]", "result": "5.14 e6/ml"},
      {"measurement": "Day 4 VCD", "setting": "HiBit reporter cell line [2]; 5 μM", "result": "7.73 e6/ml"},
      {"measurement": "Day 4 Viability", "setting": "HiBit reporter cell line [2]; 5 μM", "result": 95.6, "unit": "%"},
      {"measurement": "Day 4 Viability", "setting": "HiBit reporter cell line [2]; 10 μM", "result": 89.7, "unit": "%"},
      {"measurement": "D6 VCD", "setting": "HiBit reporter cell line [2]; 5 μM", "result": "11.97 e6/ml"},
      {"measurement": "Day 6 Viability", "setting": "HiBit reporter cell line [2]; 5 μM", "result": 92.4, "unit": "%"},
      {"measurement": "D6 VCD", "setting": "HiBit reporter cell line [2]; 10 μM", "result": "5.13 e6/ml"},
      {"measurement": "Day 6 Viability", "setting": "HiBit reporter cell line [2]; 10 μM", "result": 81.0, "unit": "%"}
    ]},
    {"smiles": "C[C@@H](CO)CCC[C@@H](C)[C@H]1CC[C@H]2[C@@H]3CC=C4C[C@@H](O)CC[C@]4(C)[C@H]3CC[C@]12C", "note": "[27-hydroxycholesterol]", "values": [
      {"measurement": "exosome production", "setting": "[3]", "result": "increased exosome production"}
    ]},
    {"smiles": "CCC(C)(C)C(=O)O[C@H]1C[C@@H](C)C=C2C=C[C@H](C)[C@H](CC[C@@H]3C[C@@H](O)CC(=O)O3)[C@H]21", "note": "[Simvastatin, simvastatin]", "values": [
      {"measurement": "Relationship to Control", "setting": "[4]; exoIL-12, 5 nM simvastatin for 10 days", "result": 3.5, "unit": "x^"},
      {"measurement": "Total Particles", "setting": "[4]; exoIL-12, 5 nM simvastatin for 10 days prior to EV purification", "result": "1.79E+11"},
      {"measurement": "Relationship to Control", "setting": "[4]; exoIL-12, 10 nM simvastatin for 10 days", "result": 7, "unit": "x"},
      {"measurement": "Total Particles", "setting": "[4]; exoIL-12, 10 nM simvastatin for 10 days prior to EV purification", "result": "3.50E+11"},
      {"measurement": "Luciferase relative to control", "setting": "[1]; 10 nM simvastatin, Day 2", "result": 2.3},
      {"measurement": "Luciferase relative to control", "setting": "[1]; 10 nM simvastatin, Day 3", "result": 4.7},
      {"measurement": "Luciferase relative to control", "setting": "[1]; 10 nM simvastatin, Day 6", "result": 9.6},
      {"measurement": "Luciferase relative to control", "setting": "[1]; 50 nM simvastatin, Day 2", "result": 5.3},
      {"measurement": "IC50", "setting": "[1]; simvastatin supplemented into the media, inhibited quantity not stated", "result": "10 to 20", "unit": "nM"},
      {"measurement": "FOLD INCREASE PER CELL EV PRODUCTION", "setting": "human adipose MSC cells", "result": 2.6, "unit": "X"},
      {"measurement": "FOLD INCREASE PER CELL EV PRODUCTION", "setting": "human adipose MSC cells; listed as Sim", "result": 2.6, "unit": "X"},
      {"measurement": "increase in EV yield relative to untreated controls", "setting": "CHO-S cells; CHO-S cells six days after being treated with 6 nM simvastatin", "result": 5.6, "unit": "fold"},
      {"measurement": "Relationship to Control", "setting": "CHO-S cells; CHO-S, 10 nM simvastatin", "result": 5.6, "unit": "X"},
      {"measurement": "Total Particles", "setting": "CHO-S cells; CHO-S, 10 nM simvastatin", "result": "2.22E+11"},
      {"measurement": "Relationship to Control", "setting": "[5]; 5 nM simvastatin for 10 days", "result": 4, "unit": "x"},
      {"measurement": "Total Particles", "setting": "[5]; 5 nM simvastatin for 10 days prior to EV purification", "result": "4.5E+11"},
      {"measurement": "D6 VCD", "setting": "HiBit reporter cell line [6]; 2 nM simvastatin", "result": "17.00 e6/ml"},
      {"measurement": "Day 4 VCD", "setting": "HiBit reporter cell line [6]; 2 nM simvastatin", "result": "10.41 e6/ml"},
      {"measurement": "Day 4 Viability", "setting": "HiBit reporter cell line [6]; 2 nM simvastatin", "result": 94.9, "unit": "%"},
      {"measurement": "Day 6 Viability", "setting": "HiBit reporter cell line [6]; 2 nM simvastatin", "result": 95.5, "unit": "%"},
      {"measurement": "D6 VCD", "setting": "HiBit reporter cell line [6]; 5 nM simvastatin", "result": "15.5 e6/ml"},
      {"measurement": "Day 4 VCD", "setting": "HiBit reporter cell line [6]; 5 nM simvastatin", "result": "9.16 e6/ml"},
      {"measurement": "Day 4 Viability", "setting": "HiBit reporter cell line [6]; 5 nM simvastatin", "result": 92.7, "unit": "%"},
      {"measurement": "Day 6 Viability", "setting": "HiBit reporter cell line [6]; 5 nM simvastatin", "result": 95.7, "unit": "%"},
      {"measurement": "tolerability of producer cells", "setting": "HiBit reporter cell line [6]; 10 nM dose, batch refeed in shake flask, duration of the study", "result": "well tolerated"},
      {"measurement": "D6 VCD", "setting": "HiBit reporter cell line [6]; 10 nM simvastatin", "result": "12.41 e6/ml"},
      {"measurement": "Day 4 VCD", "setting": "HiBit reporter cell line [6]; 10 nM simvastatin", "result": "8.66 e6/ml"},
      {"measurement": "Day 4 Viability", "setting": "HiBit reporter cell line [6]; 10 nM simvastatin", "result": 88.8, "unit": "%"},
      {"measurement": "Day 6 Viability", "setting": "HiBit reporter cell line [6]; 10 nM simvastatin", "result": 93.6, "unit": "%"},
      {"measurement": "viable cell density (VCD)", "setting": "HiBit reporter cell line [6]; simvastatin alone in HiBit cultures, Example 7", "result": "characteristic decrease"}
    ]},
    {"smiles": "Cc1nc[nH]c1CN1CCN(C(=O)N[C@@H](CC(C)C)C(=O)O)[C@@H](Cc2ccccc2)C1=O", "note": "[GGTI-2418]", "values": [
      {"measurement": "effect on exosome production (RLU)", "setting": "[1]; days 2, 4, 6, and 8", "result": "no effect"},
      {"measurement": "effect on cell density (VCD)", "setting": "HiBit reporter cell line [6]; days 2, 4, 6, and 8", "result": "no effect"}
    ]},
    {"smiles": "CC(C)CCC[C@@H](C)[C@H]1CC[C@H]2[C@@H]3CC=C4C[C@@H](O)CC[C@]4(C)[C@H]3CC[C@]12C", "note": "[synthetic cholesterol, cholesterol]", "values": [
      {"measurement": "impact on exosome production", "setting": "[1]; elevated cholesterol alone", "result": "no impact"},
      {"measurement": "simvastatin induction of EV production", "setting": "[1]; supplemental cholesterol together with simvastatin, still higher than control cultures lacking statin", "result": "largely attenuated"},
      {"measurement": "impact on cell culture VCD", "setting": "HiBit reporter cell line [2]", "result": "no impact"}
    ]}
  ]
}
